According to US20250213598A1, “COMPOUNDS AS ELASTASE INHIBITOR AND SOLID FORM THEREOF” (priority 2023, published 2025):
Converted amounts (≈) assume the structure as drawn.

Tests used:
[1] = Dynamic solubility in citrate buffer solutions at room temperature; type: physicochemical; settings: for pH: supernatant
Procedure: During the test, about 200 mg of crystal form A or the amorphous form was added into 5 mL of buffered salt medium (approximately 40 mg/mL), and stirred magnetically at room temperature (approximately 25° C.). 1 mL of the suspension (or clear solution) taken at each of 2, 8, and 30 hours were centrifugated. The obtained solid is for crystal form detection (XRPD), and the supernatant/clear liquid after filtration is for solubility testing (HPLC) and pH testing.

[2] = Mechanical stability of crystal form A (grinding experiment, XRPD); type: physicochemical; settings: room temperature
Procedure: A certain amount of crystal form A of the compound shown in Formula (I) was weighed, and ground dry or wet with an appropriate amount of water for 3 minutes at room temperature (˜23° C., 70% RH) to evaluate the mechanical stability of the crystal form A. The XRPD spectrums are shown in FIG. 6.

[3] = Solid-state stability, 2-week study (HPLC, XRPD); type: physicochemical
Procedure: The solubility and stability are analyzed using an Agilent 1260 infinityII Binary Pump. • 4.

[4] = Photostability of crystal form A and amorphous form; type: physicochemical
Procedure: A certain amount of crystal form A and amorphous form of the compound shown in Formula (I) were respectively taken, and the stabilities of crystal form A and amorphous form were evaluated under light conditions.

[5] = Pharmacokinetic experiment in Sprague-Dawley rats (intravenous / inhalation; plasma and lung); type: in vivo
Procedure: The appropriate amount of sodium citrate was weighed and dissolved in water to prepare a sodium citrate solution with a concentration of 1 mg/ml. After the addition of compound (I) (appropriate amount) under stirring, the sodium citrate solution was slowly added with 1 M sodium hydroxide solution to adjust the pH to 5.0±0.2. After stirring, dissolving and filtering, a stock solution of compound (I) with a concentration of 80 mg/ml was obtained, which is administrated by inhalation. The stock solution was diluted in a continuous gradient method to give a solution of compound (I) with a concentration of 0.4 mg/ml for intravenous administration.
21 male Sprague-Dawley rats was selected and divided into 7 groups (3 animals/group). Group 1 was administered intravenously at a dose of 2 mg/kg, and groups 2-7 are administered by inhalation at a designed dose of 15 mg/kg (an actual delivered dose is 16.712 mg/kg). For animals in groups 1-2, blood samples were collected before administration and at 2 min, 5 min, 15 min, 30 min, 1 h, 2 h, 4 h, 6 h, 8 h, and 24 h after administration. For animals in groups 3-7, lung tissues and blood samples were collected at 0.25 h, 1 h, 2 h, 6 h, and 12 h after administration (i.e., 2.25 h, 3 h, 4 h, 8 h, and 14 h After the start of the drug administration). The LC-MS/MS was used to analyze the concentration of compound (I) in the plasma and lung tissues of rats, and the non-compartmental model (NCA) of the pharmacokinetic analysis software WinNonlin (8.0.0.3176) is used to analyze the drug concentrations in plasma and lung tissue and calculate the pharmacokinetic parameters.

[6] = target: T1, Recombinant Human Elastase (rhElastase) (Homo sapiens, UniProt P08246); test: Activity test against recombinant human elastase (rhElastase); type: biochemical
T1 sequence (P08246 30-267): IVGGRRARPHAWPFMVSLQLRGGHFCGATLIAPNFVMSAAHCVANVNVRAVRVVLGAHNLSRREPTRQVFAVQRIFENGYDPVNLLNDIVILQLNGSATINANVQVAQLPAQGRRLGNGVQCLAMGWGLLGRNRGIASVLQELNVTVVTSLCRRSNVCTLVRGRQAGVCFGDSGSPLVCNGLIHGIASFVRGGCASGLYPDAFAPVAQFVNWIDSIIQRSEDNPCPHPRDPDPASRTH
Procedure: Activation of protease: rhElastase was diluted to 2 μM with an activation buffer containing 1.25 μM Recombinant Mouse Active Cathepsin C Protein (mCathepsin C), and incubated at 37° C. for 2 h. After activation, the mature rhElastase was diluted to form a 3.33 nM rhElastase reaction solution. The compound was diluted in serial with DMSO and added to a 384-well plate (3-fold serial dilution, 10 concentration points, duplicate wells). For the 384-well plate containing the compound, columns 1-12 each was added with 15 μL of the reaction buffer and columns 13-24 each was added with 15 μL of the rhElastase reaction solution. The plate was pre-incubated at 25° C. for 30 min and added with 5 μL of the substrate to start the reaction. The final concentration of rhElastase is 2.5 nM, and the final concentration of the substrate is 3.125 μM. The final concentration of DMSO in the reaction system is 1%. After incubating at 37° C. for 60 min, the fluorescence value was read with an M4 microplate reader. The detection conditions are Ex/Em=380 nm/460 nm.

[7] = After 11 days, 25° C., illumination 5000 lux/h, near-ultraviolet 90 μW/cm^2
[8] = Inhalation, 15 mg/kg, SD rats, matrix Lung
[9] = Inhalation, 15 mg/kg, male SD rats, plasma
[10] = Intravenous, 2 mg/kg, male SD rats, plasma

CC(C)[C@H](NC(=O)[C@@H]1CCCN1C(=O)[C@@H](NC(=O)c1ccc(C(=O)NCC(=O)O)cc1)C(C)C)B1OB([C@@H](NC(=O)[C@@H]2CCCN2C(=O)[C@@H](NC(=O)c2ccc(C(=O)NCC(=O)O)cc2)C(C)C)C(C)C)OB([C@@H](NC(=O)[C@@H]2CCCN2C(=O)[C@@H](NC(=O)c2ccc(C(=O)NCC(=O)O)cc2)C(C)C)C(C)C)O1 [Form A]
Solubility ([1]; Citrate buffer pH = 3.5, room temperature, 2 hours): 6.15 mg/mL (≈ 4.1 mM)
Solubility ([1]; Citrate buffer pH = 3.5, room temperature, 8 hours): 15.28 mg/mL (≈ 10.2 mM)
Solubility ([1]; Citrate buffer pH = 3.5, room temperature, 30 hours): 27.16 mg/mL (≈ 18.1 mM)
Solubility ([1]; Citrate buffer pH = 4.5, room temperature, 2 hours): 16.06 mg/mL (≈ 10.7 mM)
Solubility ([1]; Citrate buffer pH = 4.5, room temperature, 8 hours): 31.34 mg/mL (≈ 20.9 mM)
Solubility ([1]; Citrate buffer pH = 4.5, room temperature, 30 hours): >34.94 mg/mL
pH ([1]; citrate buffer pH = 3.5, 2 hours): 3.56
pH ([1]; citrate buffer pH = 3.5, 8 hours): 3.58
pH ([1]; citrate buffer pH = 3.5, 30 hours): 3.56
pH ([1]; citrate buffer pH = 4.5, 2 hours): 4.48
pH ([1]; citrate buffer pH = 4.5, 8 hours): 4.46
pH ([1]; citrate buffer pH = 4.5, 30 hours): 4.38
Achieved Crystal Form ([2]; Dry grind for 3 minutes): Amorphous
Achieved Crystal Form ([2]; Dry grind for 3 minutes, listed as crystal form A): transformed into the amorphous form
Achieved Crystal Form ([2]; Wet grind with water for 3 minutes): Form A
Achieved Crystal Form ([2]; Wet grind with water for 3 minutes, listed as crystal form A): remains unchanged
Content (%) ([3]; 25° C./60 % RH, 1 week): 86.07%
Crystal form ([3]; 25° C./60 % RH, 1 week): Form A
Purity (area %) ([3]; 25° C./60 % RH, 1 week): 97.98 area %
Relative to initial (%) ([3]; 25° C./60 % RH, 1 week): 98.9%
Content (%) ([3]; 25° C./60 % RH, 2 weeks): 86.60%
Crystal form ([3]; 25° C./60 % RH, 2 weeks): Form A
Purity (area %) ([3]; 25° C./60 % RH, 2 weeks): 97.68 area %
Relative to initial (%) ([3]; 25° C./60 % RH, 2 weeks): 98.6%
crystal form changes in the two-week stability assessment ([3]; 25° C./60% RH, 40° C./75% RH, 60° C., two weeks): neither the amorphous form nor crystal form A underwent crystal form changes
Content (%) ([3]; 40° C./75 % RH, 1 week): 86.41%
Crystal form ([3]; 40° C./75 % RH, 1 week): Form A
Purity (area %) ([3]; 40° C./75 % RH, 1 week): 97.96 area %
Relative to initial (%) ([3]; 40° C./75 % RH, 1 week): 98.9%
Content (%) ([3]; 40° C./75 % RH, 2 weeks): 86.85%
Crystal form ([3]; 40° C./75 % RH, 2 weeks): Form A
Purity (area %) ([3]; 40° C./75 % RH, 2 weeks): 97.76 area %
Relative to initial (%) ([3]; 40° C./75 % RH, 2 weeks): 98.7%
Content (%) ([3]; 60° C., 1 week): 87.34%
Crystal form ([3]; 60° C., 1 week): Form A
Purity (area %) ([3]; 60° C., 1 week): 98.16 area %
Relative to initial (%) ([3]; 60° C., 1 week): 99.1%
Content (%) ([3]; 60° C., 2 weeks): 87.98%
Crystal form ([3]; 60° C., 2 weeks): Form A
Purity (area %) ([3]; 60° C., 2 weeks): 97.50 area %
Relative to initial (%) ([3]; 60° C., 2 weeks): 98.4%
Content (%) ([3]; initial): 87.08%
Crystal form ([3]; initial): Form A
Purity (area %) ([3]; initial): 99.05 area %
Content (%) [4, 7]: 85.00%
Crystal form [4, 7]: Form A
Purity (area %) [4, 7]: 97.92 area %
Relative to initial (%) [4, 7]: 98.9%
Initial Sample Content (%) ([4]; initial sample): 87.08%
Initial Sample Purity (area %) ([4]; initial sample): 99.05 area %
crystal form changes in the photostability test ([4]; light conditions): neither the amorphous form nor crystal form A underwent crystal form changes

CC(C)C(NC(=O)C1CCCN1C(=O)C(NC(=O)c1ccc(C(=O)NCC(=O)O)cc1)C(C)C)B1OB(C(NC(=O)C2CCCN2C(=O)C(NC(=O)c2ccc(C(=O)NCC(=O)O)cc2)C(C)C)C(C)C)OB(C(NC(=O)C2CCCN2C(=O)C(NC(=O)c2ccc(C(=O)NCC(=O)O)cc2)C(C)C)C(C)C)O1 (stereo not shown) [compound (I)]
Cmax [5, 8]: 67568.60
Tmax [5, 8]: 2.25 h
t1/2 [5, 8]: 2.69 h
Tmax ([5]; Inhalation, 15 mg/kg, SD rats, matrix Plasma): 2.25 h
Cmax ([5]; Inhalation, 15 mg/kg, SD rats, matrix Plasma, in ng/mL): 320.58
AUClast ([5]; Inhalation, 15 mg/kg, SD rats, matrix Plasma, in ng·h/mL): 622.35
F % ([5]; Inhalation, 15 mg/kg, male SD rats): 18.09%
AUClast [5, 9]: 1501.79 ± 486.138 ng·h/mL
Cmax [5, 9]: 798.55 ± 333.20 ng/mL
Tmax [5, 9]: 2.03 ± 0.0 h
t1/2 [5, 9]: 1.91 ± 1.05 h
AUClast [5, 10]: 1107.18 ± 144.07 ng·h/mL
Cmax [5, 10]: 5331.49 ± 696.49 ng/mL
Tmax [5, 10]: 0.03 ± 0.0 h
t1/2 [5, 10]: 0.33 ± 0.10 h
IC50 [6]: 1.32 nM
